Test results from patent US20160264593A1 (priority 2013, published 2016).
Where two headings read alike, the source gives them in different places.

Experiment: Pharmacokinetic study of 157 (and metabolite endothal) in SD rats, iv and po; plasma, liver, brain
Assay type: in vivo
Settings: for AUC(0-inf) / AUC / Cmax / MRT last / half-life / concentration at 0.25 h / concentration at 1 h: 1.5 mg/kg; for AUC: read-out: AUC; for MRT last: read-out: MRT (0-t)
Method: The blood, liver and brain tissue samples were collected at predetermined times from rats. […] Compound were diluted shortly before use in 4% sodium bicarbonate for sterile injection (this is the standard pediatric solution of NaHCO3 with a pH of about 8.5).
Compound 153 was freshly prepared by diluting the drugs shortly before use in 4% sodium bicarbonate for sterile injection (this is the standard pediatric solution of NaHCO3 with a pH of about 8.5). The final concentrations of 153 solutions were 0.25 mg/mL. The 153 solutions were administered via iv or po route at dose volume of 5 ml/kg according to the latest body weight. Compound 157 was freshly prepared by diluting the drugs shortly before use in 4% sodium bicarbonate for sterile injection (this is the standard pediatric solution of NaHCO3 with a pH of about 8.5). The final concentrations of […] solutions were 0.3 mg/mL. The 157 solutions were administered via iv or po route at dose volume of 5 ml/kg according to the latest body weight.
Twelve (12) female SD rats per group were dosed by iv with 153 or 157. The rats were fasted overnight prior to dosing, with free access to water. Foods were withheld for 2 hours post-dose. Blood, liver and brain tissue samples in two animals each group were collected at each time point, within 10% of the scheduled time for each time point. Two extra animals were used for analytic method development.
Blood (>0.3 mL) were collected via aorta abdominalis in anaesthetic animals into tubes containing heparin at 15 min, 1, 2, 6, 10 and 24 hours after iv administration. Liver and brain tissues were collected immediately after animal death. The liver and brain tissues were excised and rinsed with cold saline to avoid blood residual. Upon collection, each sample was placed on ice and the blood samples were subsequently centrifuged (4° C., 11000 rpm, 5 min) to separate plasma. The obtained plasma, liver and brain tissue samples were stored at −70° C. until LC-MS/MS analysis.
Two (2) female SD rats per group were dosed by po with 153 or 157. The rats were fasted overnight prior to dosing, with free access to water. Foods were withheld for 2 hours post-dose. Blood samples (>0.3 mL) were collected via aorta abdominalis in anaesthetic animals into tubes containing heparin at 30 min, 1, 2, 6, 10 and 24 hours after po administration.
To each sample, 30 μL IS-D (for blank samples, 20 μL acetonitrile:water (1:1) was added) and 300 μl acetonitrile was added. The sample mixture was vortexed for approximately 3 min. After centrifugation at 10000 rpm for 5 min at 4° C., 100 μL of the upper layer was transferred to a new tube and added 200 μL 0.4% formic acid in water (pH6.0). The mixture was vortexed for approximately 3 min before injected onto the LC/MS/MS system for analysis.
On the day of the assay, the frozen liver and brain samples were thawed unassisted at room temperature. An about 200 mg weighed sample of each thawed tissue was placed into a plastic tube with water (0.6 mL) to facilitate homogenization. Tissue processing was conducted using a homogenizer for approximately 1 min, 100 μl homogenate was transferred into a fresh Eppendorf tube. To each tube, 50 μL IS-D was added and mixed. Then 500 μl acetonitrile was added and the sample mixture was vortexed for approximately 3 min. After centrifugation at 10000 rpm for 5 min at 4° C., 100 μL of the upper layer was transferred to a new tube and evaporate the supernatant to dryness at 35° C. Reconstitute the residue with 200 μL of 0.4% formic acid in water (pH 6.0), and vortex for 3 min, submit for LC-MS/MS analysis.
Frozen unknown plasma samples were completely thawed at room temperature and vortexed thoroughly. With a pipette, 50 μL of plasma was transferred into a 2.0 mL Eppendorf tube. 50 μL of 0.1N HCl and 800 μL ethyl acetate were added into each sample. The sample mixture was vortexed for approximately 3 min.

[1] = female, SD (Sprague-Dawley), rat, in vivo, iv, 157 in plasma, IV 1.5 mg/kg, Mean
[2] = female, SD (Sprague-Dawley), rat, in vivo, iv, 157 in plasma, IV 1.5 mg/kg, rat 1
[3] = female, SD (Sprague-Dawley), rat, in vivo, iv, 157 in plasma, IV 1.5 mg/kg, rat 2
[4] = female, SD (Sprague-Dawley), rat, in vivo, po, 157 in plasma, PO 1.5 mg/kg, Mean
[5] = female, SD (Sprague-Dawley), rat, in vivo, po, 157 in plasma, PO 1.5 mg/kg, rat 1
[6] = female, SD, rat, in vivo, iv, iv 1.5 mg/kg, Mean, read-out: 157 brain concentration
[7] = female, SD, rat, in vivo, iv, iv 1.5 mg/kg, Mean, read-out: 157 liver concentration
[8] = female, SD, rat, in vivo, iv, iv 1.5 mg/kg, Rat 1, read-out: 157 brain concentration
[9] = female, SD, rat, in vivo, iv, iv 1.5 mg/kg, Rat 2, read-out: 157 brain concentration

In the case of CCCCCCCOC(=O)C1C2CCC(O2)C1C(=O)N1CCN(C)CC1 (stereo not shown) [Compound 157, 3-(4-Methylpiperazine-1-carbonyl)-7-oxa-bicyclo[2,2,1]heptane-2-carboxylic acid heptyl ester], the F (157, PO 1.5 mg/kg vs IV 1.5 mg/kg, Mean) is reported as 6.78%, the “conversion to endothal in the plasma (statement)” value (157 administered to rats) is reported as “converted to endothal” and the Tmax (157 in Brain, iv 1.5 mg/kg, Mean) is reported as 15 min. For the same compound, the Tmax (157 in Brain, iv 1.5 mg/kg, rat 1) was 15 min, the Tmax (157 in Brain, iv 1.5 mg/kg, rat 2) was 15 min and the Tmax (157 in Liver, iv 1.5 mg/kg, rat 1) was 15 min. It also gave a Tmax (157 in Liver, iv 1.5 mg/kg, rat 2) of 15 min, a Tmax (157 in plasma, IV 1.5 mg/kg, Mean) of 15 min and a Tmax (157 in plasma, IV 1.5 mg/kg, rat 2) of 15 min. For the same compound, the Tmax (157 in plasma, PO 1.5 mg/kg, rat 1) was 30 min, the “AUClast of 157 in brain” value (157 iv 1.5 mg/kg) was 24.6 ng·h/g and the “AUClast of 157 in liver” value (157 iv 1.5 mg/kg) was 152 ng·h/g. The “oral availability of 157 (statement)” value (157 po 1.5 mg/kg) was “poorly orally available”, the Tmax (female, SD (Sprague-Dawley), in vivo, 157 in plasma, IV 1.5 mg/kg, rat 1, read-out: Tmax) was 15 min and the AUC(0-inf) [1] was 47.2 ng·h/mL. It also gave an AUC [1] of 47.2 ng·h/mL, a Cmax (female, SD (Sprague-Dawley), rat, in vivo, iv, 157 in plasma, IV 1.5 mg/kg, Mean, read-out: Cmax) of 115 ng/mL and an MRT last [1] of 20.5 min. The half-life (female, SD (Sprague-Dawley), rat, in vivo, iv, 157 in plasma, IV 1.5 mg/kg, Mean, read-out: T1/2 (converted)) was 23.5 min, the AUC(0-inf) [2] was 47.1 ng·h/mL and the AUC [2] was 47.1 ng·h/mL. It also gave a Cmax (female, SD (Sprague-Dawley), rat, in vivo, iv, 157 in plasma, IV 1.5 mg/kg, rat 1, read-out: Cmax) of 116 ng/mL, an MRT last [2] of 20 min and a half-life (female, SD (Sprague-Dawley), rat, in vivo, iv, 157 in plasma, IV 1.5 mg/kg, rat 1, read-out: T1/2 (converted)) of 24.5 min. It also gave an AUC(0-inf) [3] of 47.3 ng·h/mL, an AUC [3] of 47.3 ng·h/mL and a Cmax (female, SD (Sprague-Dawley), rat, in vivo, iv, 157 in plasma, IV 1.5 mg/kg, rat 2, read-out: Cmax) of 114 ng/mL. For the same compound, the MRT last [3] was 20.9 min, the half-life (female, SD (Sprague-Dawley), rat, in vivo, iv, 157 in plasma, IV 1.5 mg/kg, rat 2, read-out: T1/2 (converted)) was 22.4 min and the AUC(0-inf) [4] was 3.2 ng·h/mL. The AUC [4] was 3.2 ng·h/mL, the Cmax (female, SD (Sprague-Dawley), rat, in vivo, po, 157 in plasma, PO 1.5 mg/kg, Mean, read-out: Cmax) was 6.14 ng/mL and the MRT last [4] was 56.8 min. It also gave a half-life (female, SD (Sprague-Dawley), rat, in vivo, po, 157 in plasma, PO 1.5 mg/kg, Mean, read-out: T1/2 (converted)) of 24.2 min, an AUC(0-inf) [5] of 3.4 ng·h/mL and an AUC [5] of 3.4 ng·h/mL. The Cmax (female, SD (Sprague-Dawley), rat, in vivo, po, 157 in plasma, PO 1.5 mg/kg, rat 1, read-out: Cmax) was 5.92 ng/mL, the MRT last [5] was 59.3 min and the half-life (female, SD (Sprague-Dawley), rat, in vivo, po, 157 in plasma, PO 1.5 mg/kg, rat 1, read-out: T1/2 (converted)) was 26.2 min. It also gave a Tmax (female, SD (Sprague-Dawley), rat, in vivo, 157 in plasma, PO 1.5 mg/kg, Mean, read-out: Tmax) of 30 min, a half-life (female, SD, rat, in vivo, iv, 157 iv 1.5 mg/kg, read-out: T1/2 of 157 in brain (converted)) of 9.72 min and a half-life (female, SD, rat, in vivo, iv, 157 iv 1.5 mg/kg, read-out: T1/2 of 157 in liver (converted)) of 48.8 min. The half-life (female, SD, rat, in vivo, iv, 157 iv 1.5 mg/kg, read-out: T1/2 of 157 in plasma (converted)) was 23.5 min, the Cmax (female, SD, rat, in vivo, iv, 157 iv 1.5 mg/kg, read-out: mean Cmax of 157 in brain) was 60 ng/g and the Cmax (female, SD, rat, in vivo, iv, 157 iv 1.5 mg/kg, read-out: mean Cmax of 157 in liver) was 297 ng/g. The Cmax (female, SD, rat, in vivo, iv, 157 iv 1.5 mg/kg, read-out: mean Cmax of 157 in plasma) was 115 ng/mL, the concentration at 0.25 h [6] was 60 ng/g and the concentration at 0.25 h [7] was 297 ng/g. For the same compound, the concentration at 0.25 h [8] was 60 ng/g, the concentration at 0.25 h [9] was 60 ng/g and the concentration at 1 h [6] was 2.4 ng/g. It also gave a concentration at 1 h [7] of 23.5 ng/g, a concentration at 1 h [8] of 1.99 ng/g and a concentration at 1 h (female, SD, rat, in vivo, iv, iv 1.5 mg/kg, Rat 1, read-out: 157 liver concentration) of 29.4 ng/g. For the same compound, the concentration at 1 h [9] was 2.8 ng/g.
